Literature values in patent publication US10894006B2, “Nanoparticles for the encapsulation of compounds, preparation thereof and use of same” (CENTRO NACIONAL DE TECNOLOGÍA Y SEGURIDAD ALIMENTARIA, …, priority 2010, dated 2021).
Like-named read-outs stand apart in the source and are kept apart here.

solubility (in slightly alkaline aqueous solution): freely soluble
solubility (in water): slightly soluble
Structure (SMILES): Nc1nc2ncc(CNc3ccc(C(=O)N[C@@H](CCC(=O)O)C(=O)O)cc3)nc2c(=O)[nH]1 [Non-encap FA, folic acid]
